Legend:
[1] = test system: cancer stem cells USC-04; experiment: MTT cytotoxicity assay on cancer stem cells USC-04; type: cell-based; conditions: Homo sapiens
From the text: (§1) Verapamil is used as an inhibitor of drug efflux pump proteins such as P-glycoprotein.

[2] = test system: K-Ras; experiment: Western blot K-Ras expression; type: cell-based, human; conditions: U251 glioma cells, 24 hours
Description: (§2) U251 glioma cells were treated with Sigma POH or purified POH for 24 hours, then Western blot was performed.

[3] = test system: H-Ras; experiment: Western blot H-Ras expression; type: cell-based, human; conditions: U251 glioma cells, 24 hours
Description: as §2

[4] = test system: glioma cells; experiment: Apoptosis / cell killing by rolipram with or without POH; type: cell-based
Description: When cells were treated with rolipram alone, apoptosis occurred only after 48 hours post the addition of high concentrations of rolipram (e.g., 1 mM). Synergistic cell killing by rolipram and POH occurred within a much shorter time period, i.e., 6 hours after the addition of the drugs. Chen et al. The type IV phosphodiesterase inhibitor rolipram induces expression of the cell cycle inhibitors p21 Cip 1 and p27Kip1, resulting in growth inhibition, increased differentiation, and subsequent apoptosis of malignant A-12 glioma cells. Cancer Biology & Therapy, Vol. 1:3, 268-276, 2003.

[5] = test system: CCAAT/enhancer binding protein (CHOP); experiment: Western blot apoptosis marker CHOP; type: cell-based, human; conditions: 20 hours
Description: (§3) The treatments for different lanes of the Western blot are as follows: 1: No treatment; 2: 0.5 mM purified POH; 3: 1.5 mM purified POH; 4: 0.5 mM Sigma POH; 5: 1.5 mM Sigma POH; 6: 0.5 mM Wako POH; 7: 1.5 mM Wako POH; 8: Positive Control (DMC 40uM). Sigma POH is the POH purchased from Sigma Chemicals. Wako POH is the POH purchased from […]. Cells were treated with different agents or mock treated for 20 hours before being lysed.
(§4) Sigma POH is the POH purchased from Sigma Chemicals.
(§5) GRP78 is an anti-apoptotic protein the level of which is increased in response to stress. CHOP is a proapoptotic protein signaling for apoptosis. Pyrko et al. The unfolded protein response regulator GRP78/BiP as a novel target for increasing chemosensitivity in malignant gliomas. Cancer Research 67(20):9809-16, 2007.
(§6) U251 TMZ-sensitive and TMZ-resistant (U251/TR1, U251/TR2) cells were treated with Sigma POH (1.5 mM) or purified POH (1.5 mM) for 20 hours, then Western blot was performed.

[6] = test system: U251 temozolomide-resistant cells (U251/TR1 and U251/TR2); type: cell-based, human
From the text: (§7) U251/TR1 and U251/TR2 refer to two temozolomide-resistant U251 cell lines.

[7] = test system: U251 human glioma cells (temozolomide-sensitive); type: cell-based
From the text: as §7

[8] = test system: U251 temozolomide-resistant cells (U251/TR1); experiment: Colony formation assay on temozolomide-resistant U251; type: cell-based, human; conditions: FIG. 3C
[9] = test system: glucose-regulated protein 78 (GRP78); experiment: Western blot ER stress marker GRP78; type: cell-based, human; conditions: 20 hours
Description: as §3, §4, §5, §6

[10] = test system: U251, U87, LN299 and A172 human glioma cells; type: cell-based
[11] = test system: U251 human malignant glioma cells; experiment: Colony formation assay, POH plus radiation; type: cell-based; conditions: FIG. 4B
Description: (§8) Cells were treated with 325 μM or 650 μM POH prior to radiation at the doses of 2, 5 or 10 Grays (Gy). […] This was confirmed for another human glioma cell line (U251) and also for a melanoma cell line (B16-F1) (FIG. 4B).

[12] = test system: B16-F1 melanoma cells; experiment: Colony formation assay, POH plus radiation; type: cell-based; conditions: FIG. 4B
Description: as §8

[13] = test system: human A172 glioma cells; experiment: Colony formation assay, POH plus radiation; type: cell-based; conditions: 325 μM or 650 μM POH prior to radiation at 2, 5 or 10 Gy
Description: as §8

[14] = test system: intracranial glioma model; experiment: Intracranial glioma model in athymic nu/nu mice, survival; type: in vivo; conditions: mice treated with TMZ; untreated about four weeks
Description: Male athymic nu/nu mice (6-8 weeks old) will be employed for this research. Rodent subcutaneous/intracranial glioma model can be established as follows. Six to eight week old athymic nu/nu mice will be anesthesized with intraperitoneal injections of ketamine (80 mg/kg) and xylazine (10 mg/kg). For the intracranial glioma model, the mice are placed into a stereotactic head frame (Harvard Apparatus), and local anesthetic (0.2 cc of 0.25% xylocaine) is injected into the right frontal scalp. A knife blade is used to make a small incision, and a drill bit is used to make a small opening in the right frontal skull at the level of the coronal suture. Glioma cells (1×10^5 cells/10 μl), for example, U-87 human glioma cells, will be loaded into a calibrated Hamilton syringe. The needle tip will be placed precisely into the right frontal lobe of the […], and cells will be slowly injected using a control push from the Hamilton syringe. After the injection is finished, the syringe and needle will be removed, and the wound closed.
Brains will be harvested, and tumor size determined. Survival curves will be constructed by following the mice until they develop neurological deficits. Our experience has been that survival is about four weeks after implantation for untreated mice, and up to 8 weeks for mice treated with TMZ.

[15] = oral, cited from earlier work
[16] = test system: interleukin 8 (IL8); experiment: ELISA for IL-8 secretion; type: cell-based; conditions: U87 human glioma cells, POH for 48 hours
Description: (§9) ELISA was performed after cells were treated with POH for 48 hours.
(§10) Pyrko et al. The unfolded protein response regulator GRP78/BiP as a novel target for increasing chemosensitivity in malignant gliomas. Cancer Res 67(20):9809-16, 2007. […] In addition, it may overcome the immunosuppressive functions of transforming growth factor beta-2 (TGFβ-2) secreted by glioma cells.

[17] = test system: normal stem cells mSVZ (mouse SVZ stem cells), brain endothelial cells (BECs) and astrocytes; experiment: Comparison of POH IC50 values, normal cells; type: cell-based; conditions: FIG. 18, normal cells
[18] = test system: H-Ras; experiment: H-ras production in glioblastoma cancer stem cells; type: cell-based, human; conditions: USC-02 and USC-04, POH for 24 hours
Description: Two glioblastoma cancer stem cell lines (USC-02, USC-04) were treated by POH for 24 hours. USC-02 and USC-04 are two independent primary cancer stem cell lines isolated from glioblastoma tissue from two different patients.

[19] = test system: VEGF; experiment: ELISA for VEGF secretion; type: cell-based; conditions: U87 human glioma cells, POH for 48 hours
Description: as §9, §10

[20] = test system: glioblastoma cancer stem cell line USC-02; experiment: MTT assay on glioblastoma cancer stem cells USC-02; type: cell-based, human
From the text: as §1

[21] = test system: glioblastoma cancer stem cells (USC04); experiment: Sphere formation assay (SFA); type: cell-based, human; conditions: POH 0-1.5 mM for 6 days
Description: USC04 cells were incubated with varying concentrations of POH (0-1.5 mM) for 6 days.

[22] = test system: cell lines that were TMZ resistant; experiment: Cytotoxicity assay, POH combined with TMZ, resistant lines; type: cell-based; conditions: POH and TMZ
Description: (§11) Cytotoxicity assays were carried out after cells were treated with POH in combination with temozolomide (TMZ), the standard alkylating agent used in the treatment of malignant gliomas. […] This effect was also seen in cell lines that were TMZ resistant.

[23] = test system: recurrent malignant gliomas; conditions: intranasal delivery, patients with recurrent malignant gliomas; cited from earlier work
[24] = test system: U251, LN229 and U87 human glioma cells; experiment: MTT cytotoxicity assay, POH combined with DMC; type: cell-based; conditions: MTT and colony formation assays, FIG. 5A
From the text: (§12) Pyrko et al. HIV-1 protease inhibitors nelfinavir and atazanavir induce malignant glioma death by triggering endoplasmic reticulum stress. Cancer Res 67(22): 10920-10928, 2007.

[25] = test system: glioma; experiment: Boyden matrigel chamber invasion; type: cell-based
[26] = test system: brain endothelial cells (BECs); experiment: Transepithelial electrical resistance (TEER), in vitro blood brain barrier model; type: cell-based; conditions: 0.03% POH for 20 hours, compared to medium only, 0.01% and 0.02% POH
Description: In these experiments, brain endothelial cells (BECs) were used as an in vitro model of blood brain barrier. The increase in TEER in each group over time corresponds to increased confluency of the cells in culture. TEER decreased when cells were treated by 0.03% POH for 20 hours compared to medium only, 0.01% POH treatment, and 0.02% POH treatment.
Transepithelial electrical resistance (TEER) assays were performed assessing the ability of POH to increase paracellular permeability (FIG. 7A). In these experiments, brain endothelial cells (BECs) were used as an in vitro blood brain barrier model. […] TEER decreased when cells were treated by 0.03% POH for 20 hours compared to medium only, 0.01% POH treatment, and 0.02% POH treatment. The increase in TEER in each group over time corresponds to increased confluency of the cells in culture.

[27] = test system: U251 human glioma cells; experiment: MTT cytotoxicity assay, POH combined with TMZ; type: cell-based; conditions: POH and TMZ, FIG. 5C
Description: as §11

[28] = test system: U251 human glioma cells; experiment: MTT cytotoxicity assay, POH combined with Nelfinavir; type: cell-based; conditions: FIG. 5B
From the text: as §12

[29] = test system: glioma tumor cells (U251 cells); experiment: MTT cytotoxicity assay, glioma cells versus normal brain cells; type: cell-based, human; conditions: FIG. 14
From the text: as §1

[30] = U251 TMZ-sensitive and TMZ-resistant (U251/TR1, U251/TR2) cells, 1.5 mM

## Cc1ccc(C)c(-c2cc(C(F)(F)F)nn2-c2ccc(S(N)(=O)=O)cc2)c1 [DMC, dimethyl-celecoxib, reference compound]
[1]; FIG. 15B
  EC50: 78 µM

## C=C(C)[C@@H]1CC=C(CO)CC1 [Sigma POH, (S)-perillyl alcohol]
[2]
  K-Ras expression: decreased
[3]
  H-Ras expression: decreased

## COc1ccc(C2CNC(=O)C2)cc1OC1CCCC1 (stereo not shown) [rolipram, reference compound]
[4]; rolipram alone, high concentrations (e.g., 1 mM)
  time after addition at which apoptosis occurred: ≥ 48 h

## C=C(C)[C@@H]1CC=C(CO)CC1 [purified POH, (S)-perillyl alcohol]
[5]; [30]
  expression of CHOP: increased expression
[6]
  cytotoxicity (MTT), cell killing: effective in killing
[7]
  cytotoxicity (MTT), cell killing: effective in killing
[8]
  colony formation: efficacy
[9]; [30]
  expression of GRP-78: increased expression
[10]
  cytotoxicity (MTT), cell killing: efficacy
[11]
  cytotoxicity in combination with radiation: synergistic cytotoxicity
[12]
  cytotoxicity in combination with radiation: synergistic cytotoxicity
[13]
  cell killing in combination with radiation: synergistically

## Cn1nnc2c(C(N)=O)ncn2c1=O [TMZ, temozolomide]
[14]
  survival after implantation: up to 8 weeks

## C=C(C)[C@@H]1CC=C(CO)CC1 [POH, perillyl alcohol]
[15]
  anti-cancer efficacy: limited
[15]; mainly gastrointestinal side effects
  tolerability: generally poorly tolerated
[5]; U251, U87 and A172 cells
  level of CHOP: up-regulated
[4]; rolipram and POH in combination
  time after addition of the drugs at which synergistic cell killing occurred: 6 h
[16]
  production of interleukin 8 (IL8) by glioma cells: inhibited production
[17]
  POH IC50 compared among cell lines: most resistant
[18]
  H-ras production: decreased H-ras production
[19]
  production of VEGF by glioma cells: inhibited production
[20]; FIG. 18, USC-02 cells
  POH IC50 compared among cell lines: most sensitive
[20]; MTT, 48 hrs
  sensitivity of USC-02 to POH relative to U251 cells or normal stem cells (mSVZ): more sensitive
[9]; U251, U87 and A172 cells
  level of GRP78: up-regulated
[21]
  number of spheres formed: decreased the number of spheres
[1]; FIG. 15A
  EC50: 300 µM
[22]
  cytotoxicity in combination with temozolomide (TMZ): also seen
[23]
  duration of disease remission in several patients: ≤ 3 years
  patients achieving 6 month progression-free period: 50%
  side effects from the treatment: almost non-existent
[24]
  cytotoxicity in combination with dimethyl-celecoxib (DMC): at least additive
[25]
  glioma invasion: inhibit glioma invasion
[26]
  TEER: decreased
[27]
  cytotoxicity in combination with temozolomide (TMZ): at least additive
[28]
  cytotoxicity in combination with Nelfinavir (NFV): at least additive
[29]
  sensitivity of U251 cells to POH relative to brain endothelial cells (BECs) and astrocytes: more sensitive
